Laboratory results reported in patent US5811568A, “Process for the preparation of mono- and bis(phosphocholine) derivatives which have antifungal activity” (Shaman Pharmaceuticals, Inc., priority 1994, dated 1998).

Columns and labels:
Format in all cases: cell-based
Aspergillus fumigatus [1] = test: partial inhibition of the fungus, Aspergillus fumigatus; settings: in vitro, partial inhibition of between 25% to 75%
From the text: The antifungal activity of two exemplary phosphocholines prepared using the method of the invention, i.e., (1) synthetic 1,22-Bis-[2-(trimethylammonium)ethylphosphatyl] docosane obtained using the stepwise synthetic route and, (2) synthetic 1,22-Bis-[2-(trimethylammonium)ethyl-phosphatyl] docosane obtained using the one-pot one step route, as well as the antifungal activity of (3) the natural product isolated from Irbachia alata identified as 1,22-Bis-[2-(trimethylammonium)ethyl-phosphatyl] docosane (see International Application filed Oct. 8, 1993 was determined in vitro using three fungal cultures--Candida albicans (CA), Cryptococcus neoformans (CN), and Aspergillus fumigatus (CF). The method used to determine in vitro antifungal activity is described in McGinnis, M. R., Laboratory Handbook of Medical Mycology, Academic Press, New York, London, p 412-416 (1980); and Drouget, E.; Dupont, B.; Improvisi, L.; Vivian, M. A.; and Tortorano, A. M.; "Disc agar difusion and microplate automatized techniques for in vitro evaluation of antifungal agents on yeast and sporulated pathogenic fungi" in In Vitro and In Vivo Evaluation of Antifungal Agents, Eds. Iwata, K. and Vanden Bossche, H., Elsevier Science Publishers, New York, Oxford, p 303 (1986). […]

Cryptococcus neoformans = test: in vitro antifungal activity, minimum inhibitory concentration (MIC), Cryptococcus neoformans
From the text: (§1) The antifungal activity of two exemplary phosphocholines prepared using the method of the invention, i.e., (1) synthetic 1,22-Bis-[2-(trimethylammonium)ethylphosphatyl] docosane obtained using the stepwise synthetic route and, (2) synthetic 1,22-Bis-[2-(trimethylammonium)ethyl-phosphatyl] docosane obtained using the one-pot one step route, as well as the antifungal activity of (3) the natural product isolated from Irbachia alata identified as 1,22-Bis-[2-(trimethylammonium)ethyl-phosphatyl] docosane (see International Application filed Oct. 8, 1993 was determined in vitro using three fungal cultures--Candida albicans (CA), Cryptococcus neoformans (CN), and Aspergillus fumigatus (CF). The method used to determine in vitro antifungal activity is described in McGinnis, M. R., Laboratory Handbook of Medical Mycology, Academic Press, New York, London, p 412-416 (1980); and Drouget, E.; Dupont, B.; Improvisi, L.; Vivian, M. A.; and Tortorano, A. M.; "Disc agar difusion and microplate automatized techniques for in vitro evaluation of antifungal agents on yeast and sporulated pathogenic fungi" in In Vitro and In Vivo Evaluation of Antifungal Agents, Eds. Iwata, K. and Vanden Bossche, H., Elsevier Science Publishers, New York, Oxford, p 303 (1986). The minimum inhibitory concentration (MIC) for each is summarized in Table I. Partial inhibition of the fungus of between 25% to 75% was also measured. A description of the partial inhibition measurement can be found in R. L. Stiller, et al, The Journal of Infectious Diseases, 147, No 6 (1983).

Aspergillus fumigatus [2] = test: in vitro antifungal activity, minimum inhibitory concentration (MIC), Aspergillus fumigatus
From the text: as §1

Candida albicans = test: in vitro antifungal activity, minimum inhibitory concentration (MIC), Candida albicans
From the text: as §1

MIC CN (Cryptococcus neoformans) [µg/mL] | MIC AF (Aspergillus fumigatus [2]) [µg/mL] | MIC CA (Candida albicans) [µg/mL] | MIC (Aspergillus fumigatus [2]) [µg/mL] | MIC (Candida albicans) [µg/mL] | Compound | Partial inhibition AF (Aspergillus fumigatus [1]) [µg/mL]
0.08 | – | – | – | – | C[N+](C)(C)CCOP(=O)([O-])OCCCCCCCCCCCCCCCCCCCCCCOP(=O)([O-])OCC[N+](C)(C)C [Synthetic 1,22-Bis[2-trimethyl-ammonium)ethyl phosphatyl] do] [1,22-Bis [2-(trimethylammonium)ethylphosphatyl] docosane] | 0.02
< 0.1 | < 0.1 | 0.8 | – | – | C[N+](C)(C)CCOP(=O)([O-])OCCCCCCCCCCCCCCCCCCCCCCOP(=O)([O-])OCC[N+](C)(C)C [Synthetic 1,22-Bis[2-(trimethyl-ammonium)ethyl phosphatyl] d] [1,22-Bis [2-(trimethylammonium)ethylphosphatyl] docosane] | 0.1
– | – | – | 0.08 | 1.25 | C[N+](C)(C)CCOP(=O)([O-])OCCCCCCCCCCCCCCCCCCCCCCOP(=O)([O-])OCC[N+](C)(C)C [1,22-Bis [2-(trimethylammonium)ethylphosphatyl] docosane] | –
< 0.04 | 0.08 | 1.25 | – | – | C[N+](C)(C)CCOP(=O)([O-])OCCCCCCCCCCCCCCCCCCCCCCOP(=O)([O-])OCC[N+](C)(C)C [Isolated Natural Product 1,22-Bis[2[(trimethyl ammonium)ethy] [1,22-Bis-[2-(trimethylammonium)ethyl-phosphatyl] docosane] | –
